In US20150284375A1 (AJINOMOTO CO., INC., priority 2012, published 2015):

target: T1, human TRPA1 (Homo sapiens, UniProt O75762); experiment: Measurement of TRPA1 antagonist activity (intracellular calcium increase, FLIPR, allylisothiocyanate stimulation); assay type: cell-based; details: allylisothiocyanate 20 μM stimulation, FLIPR calcium assay; read-out: antagonism hTRPA1
T1 construct: expressed in transfected cells; host or cells: Human embryonic kidney-derived 293T cells, transiently transfected with the pcDNA3.1/zeo(+) human TRPA1 plasmid
T1 sequence (O75762 whole entry): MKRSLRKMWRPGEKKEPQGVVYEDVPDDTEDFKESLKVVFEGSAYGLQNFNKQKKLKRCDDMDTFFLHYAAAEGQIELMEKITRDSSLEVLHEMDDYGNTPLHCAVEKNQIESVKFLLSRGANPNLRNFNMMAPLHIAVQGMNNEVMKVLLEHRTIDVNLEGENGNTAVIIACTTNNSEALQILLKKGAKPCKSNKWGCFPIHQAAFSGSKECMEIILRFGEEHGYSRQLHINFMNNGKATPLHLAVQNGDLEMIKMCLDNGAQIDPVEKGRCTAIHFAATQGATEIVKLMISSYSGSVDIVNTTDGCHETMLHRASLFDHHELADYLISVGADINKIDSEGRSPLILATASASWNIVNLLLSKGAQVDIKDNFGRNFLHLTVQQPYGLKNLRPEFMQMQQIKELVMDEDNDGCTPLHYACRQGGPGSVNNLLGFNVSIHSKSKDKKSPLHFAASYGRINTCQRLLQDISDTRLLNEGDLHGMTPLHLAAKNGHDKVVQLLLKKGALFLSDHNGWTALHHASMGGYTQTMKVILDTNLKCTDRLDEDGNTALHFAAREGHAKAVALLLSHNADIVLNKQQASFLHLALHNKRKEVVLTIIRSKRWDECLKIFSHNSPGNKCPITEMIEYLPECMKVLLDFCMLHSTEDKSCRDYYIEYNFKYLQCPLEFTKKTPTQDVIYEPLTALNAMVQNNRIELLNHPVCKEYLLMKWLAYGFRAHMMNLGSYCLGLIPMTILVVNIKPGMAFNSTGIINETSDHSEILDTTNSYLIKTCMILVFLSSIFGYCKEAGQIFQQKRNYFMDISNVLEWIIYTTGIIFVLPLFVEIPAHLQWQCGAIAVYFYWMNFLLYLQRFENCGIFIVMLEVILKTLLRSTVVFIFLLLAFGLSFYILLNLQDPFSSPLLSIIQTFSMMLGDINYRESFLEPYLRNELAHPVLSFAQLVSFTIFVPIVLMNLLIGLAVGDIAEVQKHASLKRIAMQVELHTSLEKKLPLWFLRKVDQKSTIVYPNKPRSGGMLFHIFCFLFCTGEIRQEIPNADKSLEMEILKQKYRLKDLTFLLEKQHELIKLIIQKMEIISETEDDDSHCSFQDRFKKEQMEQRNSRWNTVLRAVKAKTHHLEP
In short: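 IC50 derives from a sigmoid fit of inhibition of the 5-min FLIPR fluorescence change evoked by 20 μM allylisothiocyanate, normalized between agonist and buffer responses. Test substance, diluted in HBSS/20 mM HEPES pH 7.2 plus 0.1% BSA, was applied 10 min beforehand at room temperature to Calcium4-loaded 293T cells transiently expressing human TRPA1.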

SMILES	IC50
O=C(NCc1cccc(OCc2ccc(C(F)(F)F)nc2)c1)[C@@H]1CCCN1S(=O)(=O)c1ccco1 [Example 149, (2S)-1-(2-furylsulfonyl)-N-[[3-[[6-(trifluoromethyl)-3-pyridyl]methoxy]phenyl]methyl]pyrrolidine-2-carboxamide]	240 nM
O=C(NCc1cccc(OCc2ccnc(C(F)(F)F)c2)c1)[C@@H]1CCCN1S(=O)(=O)c1ccco1 [Example 150, (2S)-1-(2-furylsulfonyl)-N-[[3-[[2-(trifluoromethyl)-4-pyridyl]methoxy]phenyl]methyl]pyrrolidine-2-carboxamide]	110 nM
O=C(NCc1ccc(Oc2cccc(C(F)(F)F)c2)cc1)[C@@H]1C=CCN1S(=O)(=O)c1ccc(F)cc1 [Example 151, (2S)-1-(4-fluorophenyl)sulfonyl-N-[[4-[3-(trifluoromethyl)phenoxy]phenyl]methyl]-2,5-dihydropyrrole-2-carboxamide]	290 nM
O=C(NCc1ccc(Oc2cccc(C(F)(F)F)c2)cc1)[C@@H]1CCCN1S(=O)(=O)c1ccco1 [Example 152, (2S)-1-(2-furylsulfonyl)-N-[[4-[3-(trifluoromethyl)phenoxy]phenyl]methyl]pyrrolidine-2-carboxamide]	460 nM
O=C(NCc1ccc(Oc2cccc(C(F)(F)F)c2)cc1)[C@@H]1CCCN1S(=O)(=O)c1ccoc1 [Example 153, (2S)-1-(3-furylsulfonyl)-N-[[4-[3-(trifluoromethyl)phenoxy]phenyl]methyl]pyrrolidine-2-carboxamide]	310 nM
O=C(NCc1ccc(Oc2cccc(C(F)(F)F)c2)cc1)[C@@H]1CCCN1S(=O)(=O)c1ccsc1 [Example 154, (2S)-1-(3-thienylsulfonyl)-N-[[4-[3-(trifluoromethyl)phenoxy]phenyl]methyl]pyrrolidine-2-carboxamide]	180 nM
O=C(NCc1ccc(Oc2ccnc(C(F)(F)F)c2)cc1)[C@@H]1CCCN1S(=O)(=O)c1ccco1 [Example 155, (2S)-1-(2-furylsulfonyl)-N-[[4-[[2-(trifluoromethyl)-4-pyridyl]oxy]phenyl]methyl]pyrrolidine-2-carboxamide]	5700 nM
O=C(NCc1ccc(Oc2ccnc(C(F)(F)F)c2)cc1)[C@@H]1CCCN1S(=O)(=O)c1ccsc1 [Example 156, (2S)-1-(3-thienylsulfonyl)-N-[[4-[[2-(trifluoromethyl)-4-pyridyl]oxy]phenyl]methyl]pyrrolidine-2-carboxamide]	1000 nM
O=C(NCc1cccc(Oc2ccc(C(F)(F)F)cc2)c1)[C@@H]1C[C@H](F)CN1S(=O)(=O)c1ccc(F)cc1 [Example 157, (2S,4S)-4-fluoro-1-(4-fluorophenyl)sulfonyl-N-[[3-[4-(trifluoromethyl)phenoxy]phenyl]methyl]pyrrolidine-2-carboxamide]	840 nM
O=C(NCc1cccc(Oc2ccc(C(F)(F)F)cc2)c1)[C@@H]1CC(F)(F)CN1S(=O)(=O)c1ccc(F)cc1 [Example 159, (2S)-4,4-difluoro-1-(4-fluorophenyl)sulfonyl-N-[[3-[4-(trifluoromethyl)phenoxy]phenyl]methyl]pyrrolidine-2-carboxamide]	210 nM
O=C(NCc1cccc(Oc2ccc(C(F)(F)F)cc2)c1)[C@@H]1C=CCN1S(=O)(=O)c1ccco1 [Example 160, (2S)-1-(2-furylsulfonyl)-N-[[3-[4-(trifluoromethyl)phenoxy]phenyl]methyl]-2,5-dihydropyrrole-2-carboxamide]	210 nM
O=C(NCc1cccc(Oc2ccc(C(F)(F)F)cc2)c1)[C@@H]1C=CCN1S(=O)(=O)c1ccsc1 [Example 161, (2S)-1-(3-thienylsulfonyl)-N-[[3-[4-(trifluoromethyl)phenoxy]phenyl]methyl]-2,5-dihydropyrrole-2-carboxamide]	57 nM
O=C(NCc1cccc(Oc2ccc(C(F)(F)F)cc2)c1)[C@@H]1CCCN1S(=O)(=O)c1ccoc1 [Example 162, (2S)-1-(3-furylsulfonyl)-N-[[3-[4-(trifluoromethyl)phenoxy]phenyl]methyl]pyrrolidine-2-carboxamide]	96 nM
O=C(NCc1cccc(OCc2ccc(C(F)(F)F)cc2)c1)[C@@H]1CCCN1S(=O)(=O)c1ccc(F)cc1 [Example 163, (2S)-1-(4-fluorophenyl)sulfonyl-N-[[3-[[4-(trifluoromethyl)phenyl]methoxy]phenyl]methyl]pyrrolidine-2-carboxamide]	27 nM
O=C(NCc1cccc(OCc2ccc(C(F)(F)F)cc2)c1)[C@@H]1C[C@H](F)CN1S(=O)(=O)c1ccc(F)cc1 [Example 164, (2S,4S)-4-fluoro-1-(4-fluorophenyl)sulfonyl-N-[[3-[[4-(trifluoromethyl)phenyl]methoxy]phenyl]methyl]pyrrolidine-2-carboxamide]	450 nM
O=C(NCc1cccc(OCc2ccc(C(F)(F)F)cc2)c1)[C@@H]1C[C@@H](F)CN1S(=O)(=O)c1ccc(F)cc1 [Example 165, (2S,4R)-4-fluoro-1-(4-fluorophenyl)sulfonyl-N-[[3-[[4-(trifluoromethyl)phenyl]methoxy]phenyl]methyl]pyrrolidine-2-carboxamide]	150 nM
O=C(NCc1cccc(OCc2ccc(C(F)(F)F)cc2)c1)[C@@H]1CC(F)(F)CN1S(=O)(=O)c1ccc(F)cc1 [Example 166, (2S)-4,4-difluoro-1-(4-fluorophenyl)sulfonyl-N-[[3-[[4-(trifluoromethyl)phenyl]methoxy]phenyl]methyl]pyrrolidine-2-carboxamide]	110 nM
O=C(NCc1cccc(OCc2ccc(C(F)(F)F)cc2)c1)[C@@H]1[C@@H](O)CCN1S(=O)(=O)c1ccc(F)cc1 [Example 167, (2S,3S)-1-(4-fluorophenyl)sulfonyl-3-hydroxy-N-[[3-[[4-(trifluoromethyl)phenyl]methoxy]phenyl]methyl]pyrrolidine-2-carboxamide]	240 nM
O=C(NCc1cccc(OCc2ccc(C(F)(F)F)cc2)c1)[C@@H]1[C@H](O)CCN1S(=O)(=O)c1ccc(F)cc1 [Example 168, (2S,3R)-1-(4-fluorophenyl)sulfonyl-3-hydroxy-N-[[3-[[4-(trifluoromethyl)phenyl]methoxy]phenyl]methyl]pyrrolidine-2-carboxamide]	2200 nM
O=C(NCc1cccc(OCc2ccc(C(F)(F)F)cc2)c1)[C@@H]1C[C@@H](O)CN1S(=O)(=O)c1ccc(F)cc1 [Example 169, (2S,4R)-1-(4-fluorophenyl)sulfonyl-4-hydroxy-N-[[3-[[4-(trifluoromethyl)phenyl]methoxy]phenyl]methyl]pyrrolidine-2-carboxamide]	290 nM
O=C(NCc1cccc(OCc2ccc(C(F)(F)F)cc2)c1)[C@@H]1C[C@H](O)CN1S(=O)(=O)c1ccc(F)cc1 [Example 170, (2S,4S)-1-(4-fluorophenyl)sulfonyl-4-hydroxy-N-[[3-[[4-(trifluoromethyl)phenyl]methoxy]phenyl]methyl]pyrrolidine-2-carboxamide]	1700 nM
O=C(NCc1cccc(OCc2ccc(C(F)(F)F)cc2)c1)[C@@H]1[C@H]2C[C@H]2CN1S(=O)(=O)c1ccc(F)cc1 [Example 171, (1R,4S,5S)-3-(4-fluorophenyl)sulfonyl-N-[[3-[[4-(trifluoromethyl)phenyl]methoxy]phenyl]methyl]-3-azabicyclo[3.1.0]hexane-4-carboxamide]	1900 nM
O=C(NCc1cccc(OCc2ccc(C(F)(F)F)cc2)c1)[C@@H]1[C@@H]2C[C@@H]2CN1S(=O)(=O)c1ccc(F)cc1 [Example 172, (1S,4S,5R)-3-(4-fluorophenyl)sulfonyl-N-[[3-[[4-(trifluoromethyl)phenyl]methoxy]phenyl]methyl]-3-azabicyclo[3.1.0]hexane-4-carboxamide]	1200 nM
O=C(NCc1cccc(OCc2ccc(C(F)(F)F)cc2)c1)[C@@H]1C[C@H]2C[C@H]2N1S(=O)(=O)c1ccc(F)cc1 [Example 173, (1R,3S,5R)-4-(4-fluorophenyl)sulfonyl-N-[[3-[[4-(trifluoromethyl)phenyl]methoxy]phenyl]methyl]-4-azabicyclo[3.1.0]hexane-3-carboxamide]	99 nM
O=C(NCc1cccc(OCc2ccc(C(F)(F)F)cc2)c1)[C@@H]1C[C@@H]2C[C@@H]2N1S(=O)(=O)c1ccc(F)cc1 [Example 174, (1S,3S,5S)-4-(4-fluorophenyl)sulfonyl-N-[[3-[[4-(trifluoromethyl)phenyl]methoxy]phenyl]methyl]-4-azabicyclo[3.1.0]hexane-3-carboxamide]	49 nM
O=C(NCc1cccc(OCc2ccc(C(F)(F)F)cc2)c1)[C@@H]1CCCCN1S(=O)(=O)c1ccc(F)cc1 [Example 175, (2S)-1-(4-fluorophenyl)sulfonyl-N-[[3-[[4-(trifluoromethyl)phenyl]methoxy]phenyl]methyl]piperidine-2-carboxamide]	780 nM
O=C(NCc1cccc(OCc2ccc(C(F)(F)F)cc2)c1)[C@@H]1CCCN1S(=O)(=O)c1ccco1 [Example 176, (2S)-1-(2-furylsulfonyl)-N-[[3-[[4-(trifluoromethyl)phenyl]methoxy]phenyl]methyl]pyrrolidine-2-carboxamide]	36 nM
O=C(NCc1cccc(OCc2ccc(C(F)(F)F)cc2)c1)[C@@H]1CCCN1S(=O)(=O)c1ccoc1 [Example 177, (2S)-1-(3-furylsulfonyl)-N-[[3-[[4-(trifluoromethyl)phenyl]methoxy]phenyl]methyl]pyrrolidine-2-carboxamide]	27 nM
O=C(NCc1cccc(OCc2ccc(C(F)(F)F)cc2)c1)[C@@H]1CCCN1S(=O)(=O)c1ccsc1 [Example 178, (2S)-1-(3-thienylsulfonyl)-N-[[3-[[4-(trifluoromethyl)phenyl]methoxy]phenyl]methyl]pyrrolidine-2-carboxamide]	8.6 nM
O=C(NCc1cccc(OCc2ccc(C(F)(F)F)cc2)c1)[C@@H]1[C@@H](O)CCN1S(=O)(=O)c1ccco1 [Example 179, (2S,3S)-1-(2-furylsulfonyl)-3-hydroxy-N-[[3-[[4-(trifluoromethyl)phenyl]methoxy]phenyl]methyl]pyrrolidine-2-carboxamide]	600 nM
